Several values for one entry are separate records, joined by “and”; a condition that tells them apart may be missing. Equal entries are not always repeated.
Tested on: WM3248 melanoma cells, 486 antibodies
Test: Reverse phase protein arrays (RPPA)
Format: cell-based, Human
Description: Pellets were snap frozen in liquid nitrogen and shipped to MD Anderson Cancer Center core RPPA facility for RPPA analysis (Table S5). Three biological replicates for each sample were generated.
Nomenclatures on the RPPA heatmaps: name_of_antibody.species_of_antibody.status_of_antibody. V - antibody validated; C - validation of antibody in progress; Q - antibody nonspecific; E – under evaluation; antibodies raised in M - mouse, G - goat, R - rabbit, or T - rat.

[1] = level 20 normalized to 0, single replicates

In the case of `CN(C)c1cccc(Nc2cc(-c3ccccc3)nc(C3CCNCC3)n2)c1` [ARN22089, N1,N1-dimethyl-N3-(6-phenyl-2-(piperidin-4-yl)pyrimidin-4-yl)benzene-1,3-diamine], the “VHL.EPPK1.M.C Norm_20_1 to Norm_20_3” value [1] is reported as 0.500 and 1.345 and 0.800, the “VHL.R.C Norm_20_1 to Norm_20_3” value [1] is reported as 0.916 and 0.962 and 0.841 and the “Vinculin.M.V Norm_20_1 to Norm_20_3” value [1] is reported as 0.883 and 0.898 and 1.015. The “WIPI1.R.C Norm_20_1 to Norm_20_3” value [1] was 1.294 and 1.483 and 1.388, the “WIPI2.R.C Norm_20_1 to Norm_20_3” value [1] was 1.222 and 0.891 and 1.265 and the “WTAP.R.V Norm_20_1 to Norm_20_3” value [1] was 1.313 and 1.590 and 0.930. The “Wee1.R.C Norm_20_1 to Norm_20_3” value [1] was 0.789 and 0.790 and 1.159, the “Wee1_pS642.R.C Norm_20_1 to Norm_20_3” value [1] was 0.904 and 0.831 and 1.081 and the “XBP.1.G.C Norm_20_1 to Norm_20_3” value [1] was 0.929 and 1.289. For the same compound, the “XIAP.R.C Norm_20_1 to Norm_20_3” value [1] was 0.985 and 0.834 and 1.059, the “XPA.M.V Norm_20_1 to Norm_20_3” value [1] was 0.800 and 0.980 and 0.934 and the “XPF.R.C Norm_20_1 to Norm_20_3” value [1] was 0.837 and 0.882. For the same compound, the “XRCC1.R.C Norm_20_1 to Norm_20_3” value [1] was 0.881 and 1.133, the “YAP.R.C Norm_20_1 to Norm_20_3” value [1] was 0.917 and 1.135 and 0.817 and the “YAP_pS127.R.V Norm_20_1 to Norm_20_3” value [1] was 1.228 and 0.736. The “YB1_pS102.R.V Norm_20_1 to Norm_20_3” value [1] was 0.867, the “YES1.R.V Norm_20_1 to Norm_20_3” value [1] was 0.976 and 0.995 and the “YTHDF2.R.V Norm_20_1 to Norm_20_3” value [1] was 1.165 and 1.218 and 1.246. The “YTHDF3.R.C Norm_20_1 to Norm_20_3” value [1] was 1.003 and 1.082 and 1.010, the “ZAP.70.R.V Norm_20_1 to Norm_20_3” value [1] was 0.955 and 0.894 and 0.817 and the “ZEB1.R.V Norm_20_1 to Norm_20_3” value [1] was 0.925 and 1.022 and 0.936. The “HLA.DQA1.R.V Norm_20 Average” value (level 20 vs 0) was 0.977, the “HMHA1.R.V Norm_20 Average” value (level 20 vs 0) was 1.016 and the “HNRNPK.R.V Norm_20 Average” value (level 20 vs 0) was 0.991. The “HSP27.M.C Norm_20 Average” value (level 20 vs 0) was 0.811, the “HSP27_pS82.R.V Norm_20 Average” value (level 20 vs 0) was 0.961 and the “HSP60.R.V Norm_20 Average” value (level 20 vs 0) was 0.996. For the same compound, the “HSP70.R.C Norm_20 Average” value (level 20 vs 0) was 1.202, the “Hexokinase.I.R.C Norm_20 Average” value (level 20 vs 0) was 1.201 and the “Hif.1αR.C Norm_20 Average” value (level 20 vs 0) was 1.051. The “Histone.H3.R.V Norm_20 Average” value (level 20 vs 0) was 5.937, the “Histone.H3_pS10.R.V Norm_20 Average” value (level 20 vs 0) was 2.467 and the “IDO.R.C Norm_20 Average” value (level 20 vs 0) was 0.964. For the same compound, the “IGF1R_pY1135_Y1136.R.V Norm_20 Average” value (level 20 vs 0) was 0.962, the “IGFBP3.M.V Norm_20 Average” value (level 20 vs 0) was 0.905 and the “IL.6.R.C Norm_20 Average” value (level 20 vs 0) was 0.971. For the same compound, the “IMP3.R.C Norm_20 Average” value (level 20 vs 0) was 0.967, the “INPP4b.R.C Norm_20 Average” value (level 20 vs 0) was 0.976 and the “IRF.1.R.V Norm_20 Average” value (level 20 vs 0) was 0.958. The “IRF.3.R.V Norm_20 Average” value (level 20 vs 0) was 0.882, the “IRS1.R.V Norm_20 Average” value (level 20 vs 0) was 1.050 and the “IRS2.R.C Norm_20 Average” value (level 20 vs 0) was 1.223. The “JAB1.M.C Norm_20 Average” value (level 20 vs 0) was 0.970, the “JNK2.R.V Norm_20 Average” value (level 20 vs 0) was 1.099 and the “JNK_pT183_Y185.R.C Norm_20 Average” value (level 20 vs 0) was 1.003. For the same compound, the “Jagged1.R.V Norm_20 Average” value (level 20 vs 0) was 1.028, the “KAP1.R.V Norm_20 Average” value (level 20 vs 0) was 1.259 and the “KEAP1.R.V Norm_20 Average” value (level 20 vs 0) was 1.000. The “LAD1.R.V Norm_20 Average” value (level 20 vs 0) was 0.964, the “LC3A.B.R.C Norm_20 Average” value (level 20 vs 0) was 1.242 and the “LCN2.R.V Norm_20 Average” value (level 20 vs 0) was 1.622. For the same compound, the “LDHA.R.C Norm_20 Average” value (level 20 vs 0) was 1.558, the “LRP6_pS1490.R.V Norm_20 Average” value (level 20 vs 0) was 1.024 and the “Lck.R.V Norm_20 Average” value (level 20 vs 0) was 1.304. For the same compound, the “Lyn.R.V Norm_20 Average” value (level 20 vs 0) was 1.028, the “MACC1.R.V Norm_20 Average” value (level 20 vs 0) was 0.935 and the “MAPK_pT202_Y204.R.C Norm_20 Average” value (level 20 vs 0) was 0.567. The “MCT4.R.V Norm_20 Average” value (level 20 vs 0) was 0.993, the “MDM2_pS166.R.V Norm_20 Average” value (level 20 vs 0) was 1.398 and the “MEK1.R.V Norm_20 Average” value (level 20 vs 0) was 1.549. The “MEK1_pS217_S221.R.V Norm_20 Average” value (level 20 vs 0) was 0.977, the “MEK2.R.V Norm_20 Average” value (level 20 vs 0) was 1.030 and the “MERIT40.R.C Norm_20 Average” value (level 20 vs 0) was 0.913. For the same compound, the “MERIT40_pS29.R.V Norm_20 Average” value (level 20 vs 0) was 1.026, the “METTL3.R.V Norm_20 Average” value (level 20 vs 0) was 1.246 and the “MIF.R.C Norm_20 Average” value (level 20 vs 0) was 0.892. The “MIG6.R.V Norm_20 Average” value (level 20 vs 0) was 0.907, the “MLH1.M.V Norm_20 Average” value (level 20 vs 0) was 0.889 and the “MLKL.R.V Norm_20 Average” value (level 20 vs 0) was 0.854. The “MMP2.R.V Norm_20 Average” value (level 20 vs 0) was 0.934, the “MMP14.R.V Norm_20 Average” value (level 20 vs 0) was 1.655 and the “MR1.M.C Norm_20 Average” value (level 20 vs 0) was 0.987. The “MRAP.R.C Norm_20 Average” value (level 20 vs 0) was 1.110, the “MSH2.R.C Norm_20 Average” value (level 20 vs 0) was 0.939 and the “MSH6.R.C Norm_20 Average” value (level 20 vs 0) was 1.329. The “MSI2.R.C Norm_20 Average” value (level 20 vs 0) was 1.187, the “MTCO1.M.V Norm_20 Average” value (level 20 vs 0) was 1.135 and the “MTSS1.M.C Norm_20 Average” value (level 20 vs 0) was 0.937. For the same compound, the “Mcl.1.R.V Norm_20 Average” value (level 20 vs 0) was 0.754, the “MelanA.R.C Norm_20 Average” value (level 20 vs 0) was 1.025 and the “Melanoma.gp100.R.C Norm_20 Average” value (level 20 vs 0) was 1.012.
